Laboratory results: PubChem BioAssay (NCI)
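48-hour exposure; five concentrations; linearly interpolated endpoints. At the TGI there is no net growth.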

Tests used:
Test in all cases: growth of human tumour cells (NCI), 48 h
[1] = system: 786-0 renal
[2] = system: A498 renal
[3] = system: A549 NSCLC
[4] = system: ACHN renal
[5] = system: CAKI-1 renal
[6] = system: CCRF-CEM leukemia
[7] = system: COLO 205 colon
[8] = system: DU-145 prostate
[9] = system: EKVX NSCLC
[10] = system: HCC-2998 colon
[11] = system: HCT-116 colon
[12] = system: HCT-15 colon
[13] = system: HOP-62 NSCLC
[14] = system: HOP-92 NSCLC
[15] = system: HS 578T breast
[16] = system: HT29 colon
[17] = system: IGROV1 ovarian
[18] = system: K-562 leukemia
[19] = system: KM12 colon
[20] = system: LOX IMVI melanoma
[21] = system: M14 melanoma
[22] = system: MALME-3M melanoma
[23] = system: MCF7 breast
[24] = system: MDA-MB-231 breast
[25] = system: MDA-MB-435
[26] = system: MDA-N
[27] = system: MOLT-4 leukemia
[28] = system: NCI-H226 lung
[29] = system: NCI-H23 lung
[30] = system: NCI-H460 lung
[31] = system: NCI-H522 lung
[32] = system: NCI/ADR-RES ovarian
[33] = system: OVCAR-3 ovarian
[34] = system: OVCAR-4 ovarian
[35] = system: OVCAR-5 ovarian
[36] = system: OVCAR-8 ovarian
[37] = system: PC-3 prostate
[38] = system: RPMI-8226 leukemia
[39] = system: RXF 393 renal
[40] = system: SF-268 CNS
[41] = system: SF-295 CNS
[42] = system: SF-539 CNS
[43] = system: SK-MEL-2 melanoma
[44] = system: SK-MEL-28 melanoma
[45] = system: SK-MEL-5 melanoma
[46] = system: SK-OV-3 ovarian
[47] = system: SN12C renal
[48] = system: SNB-19 CNS
[49] = system: SNB-75 CNS
[50] = system: SW-620 colon
[51] = system: T-47D breast
[52] = system: TK-10 renal
[53] = system: U251 CNS
[54] = system: UACC-257 melanoma
[55] = system: UO-31 renal
[56] = system: BT-549 breast
[57] = system: HL-60(TB) leukemia
[58] = system: UACC-62 melanoma

## C#CCn1c(=O)c2ccccc2n(CC#C)c1=O
[1]
  TGI: > 10 µM
[2]
  TGI: > 10 µM
[3]
  TGI: > 10 µM
[4]
  TGI: > 10 µM
[5]
  TGI: > 10 µM
[6]
  TGI: > 10 µM
[7]
  TGI: > 10 µM
[8]
  TGI: > 10 µM
[9]
  TGI: > 10 µM
[10]
  TGI: > 10 µM
[11]
  TGI: > 10 µM
[12]
  TGI: > 10 µM
[13]
  TGI: > 10 µM
[14]
  TGI: > 10 µM
[15]
  TGI: > 10 µM
[16]
  TGI: > 10 µM
[17]
  TGI: > 10 µM
[18]
  TGI: > 10 µM
[19]
  TGI: > 10 µM
[20]
  TGI: > 10 µM
[21]
  TGI: > 10 µM
[22]
  TGI: > 10 µM
[23]
  TGI: > 10 µM
[24]
  TGI: > 10 µM
[25]
  TGI: > 10 µM
[26]
  TGI: > 10 µM
[27]
  TGI: > 10 µM
[28]
  TGI: > 10 µM
[29]
  TGI: > 10 µM
[30]
  TGI: > 10 µM
[31]
  TGI: > 10 µM
[32]
  TGI: > 10 µM
[33]
  TGI: > 10 µM
[34]
  TGI: > 10 µM
[35]
  TGI: > 10 µM
[36]
  TGI: > 10 µM
[37]
  TGI: > 10 µM
[38]
  TGI: > 10 µM
[39]
  TGI: > 10 µM
[40]
  TGI: > 10 µM
[41]
  TGI: > 10 µM
[42]
  TGI: > 10 µM
[43]
  TGI: > 10 µM
[44]
  TGI: > 10 µM
[45]
  TGI: > 10 µM
[46]
  TGI: > 10 µM
[47]
  TGI: > 10 µM
[48]
  TGI: > 10 µM
[49]
  TGI: > 10 µM
[50]
  TGI: > 10 µM
[51]
  TGI: > 10 µM
[52]
  TGI: > 10 µM
[53]
  TGI: > 10 µM
[54]
  TGI: > 10 µM
[55]
  TGI: > 10 µM

## CC1CN(C)c2ccccc2N=C1NN (stereo unspecified)
[1]
  TGI: > 100 µM
[2]
  TGI: > 100 µM
[3]
  TGI: > 100 µM
[4]
  TGI: > 100 µM
[56]
  TGI: > 100 µM
[5]
  TGI: > 100 µM
[6]
  TGI: > 100 µM
[7]
  TGI: > 100 µM
[8]
  TGI: > 100 µM
[9]
  TGI: > 100 µM
[11]
  TGI: > 100 µM
[12]
  TGI: > 100 µM
[57]
  TGI: > 100 µM
[13]
  TGI: > 100 µM
[15]
  TGI: > 100 µM
[16]
  TGI: > 100 µM
[17]
  TGI: > 100 µM
[18]
  TGI: > 100 µM
[19]
  TGI: > 100 µM
[21]
  TGI: > 100 µM
[22]
  TGI: > 100 µM
[24]
  TGI: > 100 µM
[25]
  TGI: > 100 µM
[26]
  TGI: > 100 µM
[27]
  TGI: > 100 µM
[28]
  TGI: > 100 µM
[29]
  TGI: > 100 µM
[30]
  TGI: > 100 µM
[31]
  TGI: > 100 µM
[32]
  TGI: > 100 µM
[33]
  TGI: > 100 µM
[34]
  TGI: > 100 µM
[35]
  TGI: > 100 µM
[36]
  TGI: > 100 µM
[37]
  TGI: > 100 µM
[38]
  TGI: > 100 µM
[39]
  TGI: 78.6 µM
[40]
  TGI: > 100 µM
[41]
  TGI: > 100 µM
[43]
  TGI: > 100 µM
[44]
  TGI: > 100 µM
[45]
  TGI: > 100 µM
[46]
  TGI: > 100 µM
[47]
  TGI: > 100 µM
[48]
  TGI: > 100 µM
[50]
  TGI: > 100 µM
[52]
  TGI: > 100 µM
[53]
  TGI: > 100 µM
[54]
  TGI: > 100 µM
[58]
  TGI: > 100 µM
[55]
  TGI: > 100 µM
